From US12152048B2, “Nitroxoline prodrug and use thereof” (Jiangsu Yahong Meditech Co., Ltd., priority 2018, dated 2024)
Values after ≈ are worked out from the molar mass of the structure shown. Values belong to the compound of their own block, whether it stands above or below them.

Experiments:
[1] = Determination of water solubility in phosphate buffer; assay type: physicochemical; settings: for solubility at 24 h: thermodynamic from solid; for water solubility compared with nitroxoline: conclusion in words
Source text: Experimental instruments: 96-well filter plate (MSHVN4510 or MSHVN4550, Millipore); electronic digital display vortex mixer (MS3 Digital, IKA); multi-purpose vacuum pump (circulating water type, SHB-111, Zhengzhou Greatwall Scientific Industrial and Trade Co., Ltd.); balance (XSLT05, Mettler-Toledo); comfortable mixer (Eppendorf AG 22331 Hamburg, Eppendorf); liquid chromatography (LC-3AD, Shimadzu); mass spectrometry (API4000, Applied Biosystems, USA); sample injector (Anylytics AG System, CTC). Nitroxoline was prepared according to the method disclosed in Journal of Heterocyclic Chemistry, 1971, vol. 8, p 821 by Wisdom Pharmaceutical Co., Ltd.
Experimental process: 500 μL of phosphate buffer (pH=1.2, 4.5, 6.8 or 7.4) were added to a glass flask, to which 2 mg of compound powder were added. The flask was sealed with a cap and shaked on a mixer (VORTEX-GENIE2) at room temperature for 24 hours. The solution was subjected to vacuum filtration, and the filtrate was processed to determine the compound concentration by LC/MS/MS.

[2] = Stability in human liver microsome; settings: 2 μM, 37° C., 30 minutes
Method: (§1) Experimental instruments: thermostatic shaker (SHA-B, Guohua Electric Appliance Co., Ltd.); centrifuge (5810R, Eppendorf); mass spectrometry (API4000, Applied Biosystems, USA); liquid chromatography (LC-30AD, Shimadzu); sample injector (CTC Analytics AG System, CTC).
(§2) Experimental process: 25 μg/mL alamethicin (Aldrich), 5 mM magnesium chloride and 0.5 mg/mL microsome (XENOTECH) were added to 100 mM phosphate buffer to obtain a coenzyme-free reaction solution. A portion of the coenzyme-free reaction solution was added with 1 mM reductive nicotinamide adenine dinucleotide phosphate (Aldrich) and 5 mM uridine diphosphate glucuronic acid (Aldrich) to obtain a coenzyme-containing reaction solution. The working solution of the compound of the present invention was added to the two reaction solutions so that the final concentration of the compound was 2 μM. Immediately after mixing well, 50 μL of the solution were taken out as the 0 minute sample, and 50 μL of the remaining sample were taken out after incubating at 37° C. for 30 minutes. All the samples taken out were immediately processed to precipitate protein, and centrifuged to obtain a supernate for the determination of the compound concentration by LC/MS/MS.

[3] = Stability in rat liver microsome; settings: 2 μM, 37° C., 30 minutes
Method: as §1, §2

[4] = Stability in dog liver microsome; settings: 2 μM, 37° C., 30 minutes
[5] = aqueous buffer, phosphate buffer pH 7.4, room temperature
[6] = simulated gastric fluid, phosphate buffer pH 1.2, room temperature

Compound: CC(C)(C)OC(=O)N[C@@H](Cc1ccccc1)C(=O)OCOc1ccc([N+](=O)[O-])c2cccnc12 [Compound 13, (S)-(5-Nitroquinolin-8-yloxy)methyl 2-(tert-butoxycarbonylamino)-3-phenylpropionate]
Percentage of the compound remaining in human liver microsome ([2]; with coenzyme): 0.01% | Percentage of the compound remaining in human liver microsome ([2]; without coenzyme): 0.02% | Percentage of the compound remaining in rat liver microsome ([3]; with coenzyme): 0.01% | Percentage of the compound remaining in rat liver microsome ([3]; without coenzyme): 0.02% | Percentage of the compound remaining in dog liver microsome ([4]; with coenzyme): 0.02% | Percentage of the compound remaining in dog liver microsome ([4]; without coenzyme): 0.02%

Compound: CC(=O)N[C@@H](CC(C)C)C(=O)NCC(=O)OCOc1ccc([N+](=O)[O-])c2cccnc12 [Compound 15, (S)-(5-nitroquinolin-8-yloxy)methyl 2-(2-acetamido-4-methylpentanamido)acetate]
solubility at 24 h [1, 5]: 205 µg/mL (≈ 475 µM)

Compound: CC(=O)Oc1ccccc1C(=O)OCOc1ccc([N+](=O)[O-])c2cccnc12 [Compound 34, (5-nitroquinolin-8-yloxy)methyl 2-acetoxybenzoate]
solubility at 24 h [1, 5]: 6.67 µg/mL (≈ 17.4 µM)

Compound: CCCCCCCC(=O)OCOc1ccc([N+](=O)[O-])c2cccnc12 [Compound 41, (5-nitroquinolin-8-yloxy)methyl octanoate]
solubility at 24 h [1, 5]: < 0.4 µg/mL

Compound: CCCCCCCCCC(=O)OCOc1ccc([N+](=O)[O-])c2cccnc12 [Compound 42, (5-nitroquinolin-8-yloxy)methyl decanoate]
solubility at 24 h [1, 5]: < 0.26 µg/mL

Compound: CCCCCCCCCCCC(=O)OCOc1ccc([N+](=O)[O-])c2cccnc12 [Compound 43, (5-nitroquinolin-8-yloxy)methyl dodecanoate]
solubility at 24 h [1, 5]: < 0.25 µg/mL

Compound: O=C1CCCC(Oc2ccc([N+](=O)[O-])c3cccnc23)O1 (stereo not drawn) [Compound 44, 6-(5-nitroquinolin-8-yloxy)-tetrahydropyran-2-one]
solubility at 24 h [1, 5]: 19.9 µg/mL (≈ 68.9 µM)

Compound: O=C(CCCCC(=O)OCOc1ccc([N+](=O)[O-])c2cccnc12)OCOc1ccc([N+](=O)[O-])c2cccnc12 [Compound 46, bis(5-nitroquinolin-8-yloxy)-methyl adipate]
Percentage of the compound remaining in human liver microsome ([2]; with coenzyme): 0.00% | Percentage of the compound remaining in human liver microsome ([2]; without coenzyme): 0.06% | Percentage of the compound remaining in rat liver microsome ([3]; with coenzyme): 0.00% | Percentage of the compound remaining in rat liver microsome ([3]; without coenzyme): 0.05% | Percentage of the compound remaining in dog liver microsome ([4]; with coenzyme): 0.01% | Percentage of the compound remaining in dog liver microsome ([4]; without coenzyme): 0.03%

Compound: CC(C)OC(=O)OCOP(=O)(O)OCOc1ccc([N+](=O)[O-])c2cccnc12 [Compound 72, (hydroxy((5-nitroquinolin-8-yloxy)methoxy)phosphoryloxy)methyl isopropyl carbonate]
solubility at 24 h [1, 5]: 1040 µg/mL (≈ 2490 µM) | water solubility compared with nitroxoline [1]: increased by several times

Compound: Cc1oc(=O)oc1COc1ccc([N+](=O)[O-])c2cccnc12 [Compound 77, 4-methyl-5-((5-nitroquinolin-8-yloxy)methyl)-1,3-dioxol-2-one]
solubility at 24 h [1, 5]: 21.2 µg/mL (≈ 70.3 µM)

The next lines start with the values.

solubility at 24 h [1, 5]: < 0.44 µg/mL
Compound: O=C(O)CCC(=O)OCOc1ccc([N+](=O)[O-])c2cccnc12 [Compound 8, 4-((5-nitroquinolin-8-yloxy)methoxy)-4-oxobutanoic acid]

Percentage of the compound remaining in human liver microsome ([2]; with coenzyme): 0.01% | Percentage of the compound remaining in human liver microsome ([2]; without coenzyme): 0.04% | Percentage of the compound remaining in rat liver microsome ([3]; with coenzyme): 0.02% | Percentage of the compound remaining in rat liver microsome ([3]; without coenzyme): 0.03% | Percentage of the compound remaining in dog liver microsome ([4]; with coenzyme): 0.01% | Percentage of the compound remaining in dog liver microsome ([4]; without coenzyme): 0.04% | solubility at 24 h [1, 5]: 39.1 µg/mL (≈ 108 µM)
Compound: O=C(CCCCCCCO)OCOc1ccc([N+](=O)[O-])c2cccnc12 [Compound 10, (5-nitroquinolin-8-yloxy)methyl 8-hydroxyoctanoate]

Percentage of the compound remaining in human liver microsome ([2]; with coenzyme): 0.01% | Percentage of the compound remaining in human liver microsome ([2]; without coenzyme): 0.01% | Percentage of the compound remaining in rat liver microsome ([3]; with coenzyme): 0.05% | Percentage of the compound remaining in rat liver microsome ([3]; without coenzyme): 0.03% | Percentage of the compound remaining in dog liver microsome ([4]; with coenzyme): 0.01% | Percentage of the compound remaining in dog liver microsome ([4]; without coenzyme): 0.04% | solubility at 24 h [1, 5]: 66.9 µg/mL (≈ 185 µM)
Compound: COC(=O)CCCCC(=O)OCOc1ccc([N+](=O)[O-])c2cccnc12 [Compound 11, methyl (5-nitroquinolin-8-yloxy)methyl adipate]

solubility at 24 h [1, 5]: 254 µg/mL (≈ 669 µM) | solubility at 24 h [1, 6]: 443 µg/mL (≈ 1170 µM)
Compound: CSC[C@H](NC(C)=O)C(=O)OCOc1ccc([N+](=O)[O-])c2cccnc12 [Compound 16, (R)-(5-nitroquinolin-8-yloxy)methyl 2-acetamido-3-(methylthio)propionate]

solubility at 24 h [1, 5]: 818 µg/mL (≈ 2110 µM) | water solubility compared with nitroxoline [1]: increased by several times | solubility at 24 h [1, 6]: 945 µg/mL (≈ 2440 µM)
Compound: CC(C)C(=O)N1CCC[C@@H]1C(=O)OCOc1ccc([N+](=O)[O-])c2cccnc12 [Compound 23, (R)-(5-nitroquinolin-8-yloxy)methyl 1-isopropionylpyrrolidine-2-carboxylate]

solubility at 24 h [1, 5]: 73.6 µg/mL (≈ 183 µM) | solubility at 24 h [1, 6]: 942 µg/mL (≈ 2350 µM)
Compound: CC(C)(C)C(=O)N1CCC[C@@H]1C(=O)OCOc1ccc([N+](=O)[O-])c2cccnc12 [Compound 24, (R)-(5-nitroquinolin-8-yloxy)methyl 1-pivaloylpyrrolidine-2-carboxylate]

solubility at 24 h [1, 5]: 275 µg/mL (≈ 651 µM)
Compound: O=C(OCOc1ccc([N+](=O)[O-])c2cccnc12)[C@@H]1CCCN1C(=O)c1ccccn1 [Compound 25, (S)-(5-nitroquinolin-8-yloxy)methyl 1-pyridineformylpyrrolidine-2-carboxylate]

solubility at 24 h [1, 5]: 25.1 µg/mL (≈ 48.1 µM) | solubility at 24 h [1, 6]: 342 µg/mL (≈ 654 µM)
Compound: CC(=O)N[C@@H](Cc1ccc(O)cc1)C(=O)N1CCC[C@H]1C(=O)OCOc1ccc([N+](=O)[O-])c2cccnc12 [Compound 28, (S)-(5-nitroquinolin-8-yloxy)methyl 1-((S)-2-acetamido-3-(4-hydroxyphenyl)propionyl)pyrrolidine-2-carboxylate]

solubility at 24 h [1, 5]: < 0.25 µg/mL | water solubility compared with nitroxoline [1]: increased by several times | solubility at 24 h [1, 6]: 940 µg/mL (≈ 2110 µM)
Compound: CC(=O)N[C@@H](CO)C(=O)N1CCC[C@H]1C(=O)OCOc1ccc([N+](=O)[O-])c2cccnc12 [Compound 30, (S)-(5-nitroquinolin-8-yloxy)methyl 1-((S)-2-acetamido-3-hydroxypropionyl)pyrrolidine-2-carboxylate]

solubility at 24 h [1, 5]: 10.8 µg/mL (≈ 37.1 µM)
Compound: COCC(=O)OCOc1ccc([N+](=O)[O-])c2cccnc12 [Compound 31, (5-nitroquinolin-8-yloxy)methyl 2-methoxyacetate]

solubility at 24 h [1, 5]: 28.4 µg/mL (≈ 94.1 µM)
Compound: O=C(OCOc1ccc([N+](=O)[O-])c2cccnc12)C1CCC1 [Compound 32, (5-nitroquinolin-8-yloxy)methyl cyclobutanecarboxylate]

solubility at 24 h [1, 5]: 0.04 µg/mL (≈ 0.0945 µM)
Compound: O=C(COc1ccc(Cl)cc1Cl)OCOc1ccc([N+](=O)[O-])c2cccnc12 [Compound 35, (5-nitroquinolin-8-yloxy)methyl 2-(2,4-dichlorophenoxy)acetate]

solubility at 24 h [1, 5]: 298 µg/mL (≈ 858 µM)
Compound: O=C(CN1CCOCC1)OCOc1ccc([N+](=O)[O-])c2cccnc12 [Compound 36, (5-nitroquinolin-8-yloxy)methyl 2-morpholinoacetate]

solubility at 24 h [1, 5]: 7.4 µg/mL (≈ 23.2 µM)
Compound: CCCCCC(=O)OCOc1ccc([N+](=O)[O-])c2cccnc12 [Compound 40, (5-nitroquinolin-8-yloxy)methyl hexanoate]
